Like-named read-outs stand apart in the source and are kept apart here.
Columns and labels:
[1] = target: Na+ channel (site 2), batrachotoxin-binding sites of VGSCs; details: [3H]batrachotoxin displacement, rat cerebral cortex membranes, 8 concentrations 0.1-300 µM; read-out: Na+ Channel (Site 2) Affinity IC50 ± SEM
[2] = system: motor coordination of mice; assay: Rotarod test (acute neurotoxicity); details: i.p.
Method: Additionally, their possible acute neurotoxic effects were evaluated in the rotarod test.
Acute neurotoxicity of the compounds obtained after i.p. administration was tested in mice using the rotarod test according to the methodology described earlier [37].

[3] = system: maximal electroshock-induced tonic-clonic seizures in mice; assay: Maximal electroshock-induced seizure (MES) test; format: in vivo; details: Mus musculus, ip, read-out: ED50 ± SEM, anticonvulsant activity (MES test)
Method: As the sodium channel ligands are recognized as antiepileptic agents and the affinity of 3 and 4 against VGSCs was still in the beneficial range, the investigated 1,2,4-triazole derivatives were examined for their antiepileptic potential using in the vivo model of tonic–clonic seizures in mice. The protective effect of compounds 3 and 4 against maximal electroshock-induced seizures (MES) was evaluated in a wide range of doses (producing 0% to 100% protection) that enabled us to calculate corresponding ED50 values.
Anticonvulsant activity of the investigated compounds was determined according to the same procedure as described in [11, 15, 18]. Adult albino mice weighing 20–25 g were used in the experiment. The animals were randomly divided into groups of 8 mice and kept in colony cages with free access to water and food. Test compounds were administered intraperitoneally, suspended in a 1% solution of Tween 80 in distilled water in a volume of 5 mL/kg. Electroconvulsions were produced with alternating current (0.2 s stimulus duration; 500 V, 50 Hz, 25 mA constant current) delivered through ear clip electrodes by a type 221 rodent shock generator (Hugo Sachs Elektronik, Freiburg, Germany). Absence of tonic extension of the hind limb was assumed as the criterion of anticonvulsant activity. ED50 values were calculated using Litchfield and Wilcoxon’s log-probit method.

[4] = target: Na+ channel (site 2), batrachotoxin-binding sites of VGSCs; details: cited from earlier work
[5] = system: maximal electroshock-induced tonic-clonic seizures in mice; parameters: method as in PMID 30594731; details: cited from earlier work

SMILES | IC50 [1] [µM] | PI (TD50/ED50) ([2]; pretreatment time 15 min) | PI (TD50/ED50) ([2]; pretreatment time 30 min) | PI (TD50/ED50) ([2]; pretreatment time 60 min) | PI (TD50/ED50) ([2]; pretreatment time 120 min) | melting point [°C] | ED50 ([3]; pretreatment time 15 min) [mg/kg] | ED50 ([3]; pretreatment time 30 min) [mg/kg] | ED50 ([3]; pretreatment time 60 min) [mg/kg] | ED50 ([3]; pretreatment time 120 min) [mg/kg] | other results
CCCCn1c(CCc2cccc(Cl)c2)n[nH]c1=S [Compound 3, 4-Butyl-5-[2-(3-chlorophenyl)ethyl]-2,4-dihydro-3H-1,2,4-triazole-3-thione] | 11.9 ± 0.4 | 2.4 | 3.4 | 2.3 | 1.7 | 102 to 104 | 139 ± 31.4 | 96.6 ± 14.8 | 148 ± 17.1 | 195 ± 18.9 | 
CCCCCCn1c(Cc2cccc(Cl)c2)n[nH]c1=S [Compound 2, 5-(3-chlorobenzyl)-4-hexyl-1,2,4-triazole-3-thione] |  |  |  |  |  |  |  |  |  |  | IC50 ([4]; read-out: IC50 (blocked the VGSCs)): 6.17 µM
CCCCn1c(Cc2cccc(Cl)c2)n[nH]c1=S [Compound 1] |  |  |  |  |  |  |  |  |  |  | IC50 ([4]; Figure 1, methylene-linker 3-chlorophenyl analogs, read-out: IC50 (VGSC affinity)): 15.8 µM
COc1ccc(C(=O)O[C@H]2CC[C@@]3(C)[C@@H]4CC[C@H]5[C@]6(O)C[C@H](O)[C@@]7(O)[C@@H](CN8C[C@@H](C)CC[C@H]8[C@@]7(C)O)[C@]6(O)C[C@@]53O[C@]24O)cc1OC [Veratridine, reference compound] | 17.8 ± 0.9 |  |  |  |  |  |  |  |  |  | 
CCCC(CCC)C(=O)O [Valproate] |  |  |  |  |  |  |  |  |  |  | ED50 ± SEM, anticonvulsant activity (MES test) ([5]; pretreatment time 15 min): 189.0 ± 17.3 mg/kg; ED50 ± SEM, anticonvulsant activity (MES test) ([5]; pretreatment time 30 min): 216.9 ± 9.4 mg/kg; ED50 ± SEM, anticonvulsant activity (MES test) ([5]; pretreatment time 60 min): 218.4 ± 18.9 mg/kg; ED50 ± SEM, anticonvulsant activity (MES test) ([5]; pretreatment time 120 min): 246.6 ± 21.4 mg/kg
CCCCCCn1c(CCc2cccc(Cl)c2)n[nH]c1=S [Compound 4, 5-[2-(3-Chlorophenyl)ethyl]-4-hexyl-2,4-dihydro-3H-1,2,4-triazole-3-thione] | 18.9 ± 0.3 | 6.2 | 5.3 | 3.2 | 1.9 | 84 to 86 | 115 ± 7.6 | 129 ± 21.1 | 215 ± 21.1 | 255 ± 22.5 | median toxic doses (TD50) in the rotarod test ([2]; pretreatment time not stated, highest value of the series): ≤ 710.5 mg/kg
